In patent US11241441B2, “Formulations of lixivaptan for the treatment of polycystic disease” (PALLADIO BIOSCIENCES, INC., priority 2017, dated 2022):

Key:
V2 receptor = V2 receptor (Homo sapiens, UniProt P30518); assay: Ascending multiple-dose, safety and tolerance study in healthy adult male subjects
Procedure: (§1) Lixivaptan in healthy volunteers was tested in a randomized, double-blind, placebo-controlled, ascending multiple-dose, safety and tolerance clinical study in 98 healthy male subjects.

PCK rats = assay: In vivo study of the effects of lixivaptan on PCK rats; design: species or system rat; conditions: for % kidney weight/body weight: both genders
Procedure: A study was performed that examined the effect of lixivaptan (0.5% or 1% w/w lixivaptan in ground rodent chow) on bodyweight, kidney weight, kidney cAMP, urine output, and serum electrolyte concentration in PCK rats, an orthologous animal model of Autosomal Recessive PKD that develops a phenotype reminiscent of ADPKD.
(§2) Experimental animals and study design. PCK rats were divided into control and treatment groups at four weeks of age (n=59, ˜10 animals per treatment group and gender). Lixivaptan was dissolved in DMSO and added to ground rodent chow (Regrind Labdiet 5053) at 0.5% or 1.0% concentration (w/w) by homogenous mixing, whereas control animals received the same diet without lixivaptan. Animals were exposed to control- or lixivaptan-diet for eight weeks and were sacrificed at twelve weeks of age.
Experimental Protocol. […] At the end of the dosing period, the animals were weighed and anesthetized with ketamine 90 mg/kg and xylazine 10 mg/kg, IP. Blood samples were obtained by cardiac puncture for determination of plasma electrolytes, creatinine and plasma urea levels. The right kidney and part of the liver were placed into pre-weighed vials containing 10% formaldehyde in phosphate buffer (pH 7.4). The tissues were embedded in paraffin for histological studies. The left kidneys were immediately frozen in liquid nitrogen for determination of cAMP.
Statistical Analysis. Comparisons between groups were analyzed using one-way or two-way analysis of variance (ANOVA) with least significant difference comparisons of the means or student's t-test as appropriate. Data were expressed as means±SD.

cAMP = assay: Cyclic AMP content of whole kidneys of PCK rats (Direct cAMP ELISA); type: in vivo, rat; conditions: for cAMP: whole kidney
Procedure: as §2
Experimental Protocol. Twenty-four hour urine outputs in metabolic cages were collected twice at 6 and 9 weeks of age (Study week 3 and 6, respectively). At the end of the dosing period, the animals were weighed and anesthetized with ketamine 90 mg/kg and xylazine 10 mg/kg, IP. Blood samples were obtained by cardiac puncture for determination of plasma electrolytes, creatinine and plasma urea levels. The right kidney and part of the liver were placed into pre-weighed vials containing 10% formaldehyde in phosphate buffer (pH 7.4). The tissues were embedded in paraffin for histological studies. The left kidneys were immediately frozen in liquid nitrogen for determination of cAMP.
The kidneys were weighed and ground to fine powder under liquid nitrogen in a stainless steel mortar and homogenized in 10 volumes of 0.1M HCl. The protein concentration was measured by using BCA Protein Assay Kit (Pierce, Ill.). After centrifugation at 600 g for 10 min, the supernatant was further diluted in 0.1M HCl and run directly in the assay or stored frozen for later analysis. The cAMP content was assessed by Direct cAMP ELISA kit, according to the manufacturer's instructions (Enzo Life Sciences, Inc. Farmingdale, N.Y.). Samples were taken in triplicate. The results were expressed in pmol/mg of protein.

Measured Log P = type: physicochemical
vasopressin V2 receptor = target: T1, vasopressin V2 receptor (Homo sapiens, UniProt P30518); assay: Uosm in clinical studies in healthy subjects and various patient populations; type: in vivo; conditions: healthy subjects, hyponatremia patients, ESRD patients
T1 construct: Lixivaptan antagonizes the effects of vasopressin that are mediated by the V2 receptor; from tissue; host or cells: living human subjects (in vivo clinical studies); the receptor is the subjects' own and no tissue was isolated
T1 sequence (P30518 whole entry): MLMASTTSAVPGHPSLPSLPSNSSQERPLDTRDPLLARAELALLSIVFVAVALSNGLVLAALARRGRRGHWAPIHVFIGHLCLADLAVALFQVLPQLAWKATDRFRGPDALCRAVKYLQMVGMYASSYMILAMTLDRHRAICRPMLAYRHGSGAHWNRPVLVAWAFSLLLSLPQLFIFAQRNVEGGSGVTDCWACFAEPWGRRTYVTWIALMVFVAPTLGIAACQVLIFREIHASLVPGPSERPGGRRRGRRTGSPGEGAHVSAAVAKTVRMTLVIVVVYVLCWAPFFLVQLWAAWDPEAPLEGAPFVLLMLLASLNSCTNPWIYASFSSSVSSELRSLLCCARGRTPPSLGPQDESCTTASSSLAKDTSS
Procedure: as §1
Subjects with Syndrome of Inappropriate Anti-Diuretic Hormone (SIADH) secretion were tested in a randomized, double-blind, placebo-controlled, ascending single-dose, safety and tolerance study.

[1] = PCK rats, 0.5% lixivaptan, compared to control
[2] = PCK rats, 0.5% lixivaptan, compared to control, p=0.08

V2 receptor, sequence (P30518 whole entry): as above

Cc1ccc(F)cc1C(=O)Nc1ccc(C(=O)N2Cc3cccn3Cc3ccccc32)c(Cl)c1 [Lixivaptan, 5-fluoro-2-methyl-N-[4-(5H-pyrrolo[2,1-C] [1,4]benzodiazepin-10(11H)-ylcarbonyl)-3-chlorophenyl]benzamide]
maintenance of urine osmolality below 300 mOsm/kg (V2 receptor; 300 mg to 800 mg doses (FIG. 3)): up to 12 hours | suppression of Uosm to values <300 mOsm/kg (V2 receptor; 800 mg dose only): up to 24 hours | time Uosm remained below iso-osmolar point (V2 receptor; 100-mg dose): 4 h | time of minimal values of Uosm after drug administration (V2 receptor; across all dose groups): ≤ 2 h | serum osmolality (V2 receptor; all subjects given lixivaptan): significant dose-related increases | safety and tolerability (V2 receptor; daily oral doses up to 800 mg, twice daily up to 400 mg, 14 consecutive days, healthy men): safe and well tolerated | minimal values of Uosm (V2 receptor; doses of 25 mg and higher): < 300 mOsm/L | urine output, 0-to-24-hour collection interval (V2 receptor; doses of 200 mg or larger, across 14 days, vs placebo): significantly greater urine output than placebo | urine output, first 4 hours after drug administration (V2 receptor; single dose of 25 mg or higher, vs placebo): significantly greater urine output than placebo | Uvol (0-to-4-hours) (V2 receptor; single doses of 25 mg and higher (day 1)): doubling | 24 hr urine week 7 (PCK rats; PCK rats F, 0.5% Lixivaptan): 33.5 ± 8.6 mL | 24 hr urine week 10 (PCK rats; PCK rats F, 0.5% Lixivaptan): 47.7 ± 16.8 mL | % Kidney/Body Weight (PCK rats; PCK rats F, 0.5% Lixivaptan): 1.11 ± 0.10 % | % Liver/Body Weight (PCK rats; PCK rats F, 0.5% Lixivaptan): 5.72 ± 0.42% | Kidney Cyst Score (PCK rats; PCK rats F, 0.5% Lixivaptan): 7.1 ± 4.2 % | Kidney Fibrosis Score (PCK rats; PCK rats F, 0.5% Lixivaptan): 2.0 ± 1.1% | Liver Cyst Score (PCK rats; PCK rats F, 0.5% Lixivaptan): 3.7 ± 0.8% | Liver Fibrois Score (PCK rats; PCK rats F, 0.5% Lixivaptan): 2.7 ± 0.3% | Liver Weight (PCK rats; PCK rats F, 0.5% Lixivaptan): 14.5 ± 1.6 g | Plasma Creatinine (PCK rats; PCK rats F, 0.5% Lixivaptan): 0.64 ± 0.08 mg/dL | Plasma Sodium (PCK rats; PCK rats F, 0.5% Lixivaptan): 145 ± 2 mEq/L | Plasma Urea (PCK rats; PCK rats F, 0.5% Lixivaptan): 32.3 ± 3.9 mg/dL | Total Kidney Weight (PCK rats; PCK rats F, 0.5% Lixivaptan): 2.82 ± 0.33 g | 24 hr urine week 7 (PCK rats; PCK rats F, 1.0% Lixivaptan): 39.7 ± 14.2 mL | 24 hr urine week 10 (PCK rats; PCK rats F, 1.0% Lixivaptan): 54.8 ± 19.3 mL | % Kidney/Body Weight (PCK rats; PCK rats F, 1.0% Lixivaptan): 1.75 ± 0.99% | % Liver/Body Weight (PCK rats; PCK rats F, 1.0% Lixivaptan): 7.11 ± 2.61% | Kidney Cyst Score (PCK rats; PCK rats F, 1.0% Lixivaptan): 11.9 ± 3.1% | Kidney Fibrosis Score (PCK rats; PCK rats F, 1.0% Lixivaptan): 2.1 ± 0.8% | Liver Cyst Score (PCK rats; PCK rats F, 1.0% Lixivaptan): 6.2 ± 2.7% | Liver Fibrois Score (PCK rats; PCK rats F, 1.0% Lixivaptan): 4.1 ± 1.4% | Liver Weight (PCK rats; PCK rats F, 1.0% Lixivaptan): 16.8 ± 6.7 g | Plasma Creatinine (PCK rats; PCK rats F, 1.0% Lixivaptan): 0.68 ± 0.06 mg/dL | Plasma Sodium (PCK rats; PCK rats F, 1.0% Lixivaptan): 143 ± 3 mEq/L | Plasma Urea (PCK rats; PCK rats F, 1.0% Lixivaptan): 37.7 ± 10.5 mg/dL | Total Kidney Weight (PCK rats; PCK rats F, 1.0% Lixivaptan): 4.14 ± 2.46 g | 24 hr urine week 7 (PCK rats; PCK rats M, 0.5% Lixivaptan): 45.5 ± 9.1 mL | 24 hr urine week 10 (PCK rats; PCK rats M, 0.5% Lixivaptan): 53.5 ± 14.3 mL | % Kidney/Body Weight (PCK rats; PCK rats M, 0.5% Lixivaptan): 1.37 ± 0.45% | % Liver/Body Weight (PCK rats; PCK rats M, 0.5% Lixivaptan): 5.49 ± 0.44% | Kidney Cyst Score (PCK rats; PCK rats M, 0.5% Lixivaptan): 7.7 ± 1.7 % | Kidney Fibrosis Score (PCK rats; PCK rats M, 0.5% Lixivaptan): 1.8 ± 1.2% | Liver Cyst Score (PCK rats; PCK rats M, 0.5% Lixivaptan): 3.2 ± 1.6% | Liver Fibrois Score (PCK rats; PCK rats M, 0.5% Lixivaptan): 3.1 ± 1.1% | Liver Weight (PCK rats; PCK rats M, 0.5% Lixivaptan): 23.8 ± 2.3 g | Plasma Creatinine (PCK rats; PCK rats M, 0.5% Lixivaptan): 0.63 ± 0.07 mg/dL | Plasma Sodium (PCK rats; PCK rats M, 0.5% Lixivaptan): 147 ± 4 mEq/L | Plasma Urea (PCK rats; PCK rats M, 0.5% Lixivaptan): 32.2 ± 5.8 mg/dL | Total Kidney Weight (PCK rats; PCK rats M, 0.5% Lixivaptan): 5.97 ± 2.04 g | 24 hr urine week 7 (PCK rats; PCK rats M, 1.0% Lixivaptan): 53.9 ± 7.4 mL | 24 hr urine week 10 (PCK rats; PCK rats M, 1.0% Lixivaptan): 63.7 ± 10.1 mL | % Kidney/Body Weight (PCK rats; PCK rats M, 1.0% Lixivaptan): 1.47 ± 0.46% | % Liver/Body Weight (PCK rats; PCK rats M, 1.0% Lixivaptan): 5.60 ± 0.61% | Kidney Cyst Score (PCK rats; PCK rats M, 1.0% Lixivaptan): 12.0 ± 3.7 % | Kidney Fibrosis Score (PCK rats; PCK rats M, 1.0% Lixivaptan): 2.9 ± 1.3% | Liver Cyst Score (PCK rats; PCK rats M, 1.0% Lixivaptan): 5.8 ± 1.3% | Liver Fibrois Score (PCK rats; PCK rats M, 1.0% Lixivaptan): 4.2 ± 2.0% | Liver Weight (PCK rats; PCK rats M, 1.0% Lixivaptan): 22.5 ± 2.7 g | Plasma Creatinine (PCK rats; PCK rats M, 1.0% Lixivaptan): 0.67 ± 0.04 mg/dL | Plasma Sodium (PCK rats; PCK rats M, 1.0% Lixivaptan): 147 ± 1 mEq/L | Plasma Urea (PCK rats; PCK rats M, 1.0% Lixivaptan): 32.3 ± 5.0 mg/dL | Total Kidney Weight (PCK rats; PCK rats M, 1.0% Lixivaptan): 5.92 ± 1.95 g | improvement in cystic phenotype compared to control (PCK rats; PCK rats, 0.5% lixivaptan): 54% | increase in serum sodium (PCK rats; PCK rats, 0.5% lixivaptan): 1.6% | reduction in kidney weight as a percentage of body weight (relative kidney size) (PCK rats; [1]): 26% | reduction in liver cyst score (PCK rats; [1]): 39% | reduction in liver fibrosis score (PCK rats; [2]): 20.6% | reduction in ratio of liver weight vs. body weight (PCK rats; [2]): 5.2% | beneficial effect on kidney fibrosis score (PCK rats; PCK rats, 0.5% lixivaptan, p=0.12): 30% | increase in 24 h urine output (PCK rats; PCK rats, 0.5% lixivaptan, study week 3 (rats at 7 weeks of age)): 175% | increase in 24 h urine output (PCK rats; PCK rats, 0.5% lixivaptan, study week 6 (rats at 10 weeks of age)): 189% | effect on liver pathology (PCK rats; PCK rats, 1.0% lixivaptan): did not separate from control | improvement in cystic phenotype compared to control (PCK rats; PCK rats, 1.0% lixivaptan): 25% | increase in urine output (PCK rats; PCK rats, 1.0% lixivaptan, Study week 3): 223% | increase in urine output (PCK rats; PCK rats, 1.0% lixivaptan, Study week 6): 237% | % kidney weight/body weight (PCK rats; PCK rats, 0.5% lixivaptan): 1.2% | % kidney weight/body weight (PCK rats; PCK rats, 1.0% lixivaptan, all animals): 1.6% | % kidney weight/body weight (PCK rats; PCK rats, 1.0% lixivaptan, three outliers removed): 1.3% | reduction in serum creatinine (PCK rats; PCK rats, compared to control): 13.2% | reduction in kidney cAMP levels (cAMP; [1]): 23% | cAMP (cAMP; PCK rats F, 0.5% Lixivaptan): 15.0 ± 4.6 pmol/mg protein | cAMP (cAMP; PCK rats F, 1.0% Lixivaptan): 23.6 ± 8.1 pmol/mg protein | cAMP (cAMP; PCK rats M, 0.5% Lixivaptan): 16.5 ± 5.1 pmol/mg protein | cAMP (cAMP; PCK rats M, 1.0% Lixivaptan): 24.0 ± 12.0 pmol/mg protein | logP (Measured Log P): 1 | urinary osmolality suppressed to levels below target threshold (vasopressin V2 receptor): < 300 mOsm/kg
